Data from the supplement of paper PMC10307832.

Key:
Assay in all cases: relative viability (nuclei count vs DMSO), 5 days (fraction); higher = more cells survive
RU-SKI 43 + Trametinib = compound: CC[C@@H](C)CNCC(=O)N1CCC2=C([C@@H]1COC3=CC=CC(=C3)C)C=CS2 [RU-SKI 43] + CC(=O)Nc1cccc(-n2c(=O)n(C3CC3)c(=O)c3c(Nc4ccc(I)cc4F)n(C)c(=O)c(C)c32)c1 [Trametinib] (partner 0.02 µM)
In short: (§1)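 One day after seeding in 1536-well plates, lung cancer cell lines were dosed by pin tool. Dosing was either single-drug or a fixed anchor-drug dose plus five library-drug doses (not always all listed) in √10 steps. After 5 days, nuclei were stained in one fix-and-stain step and counted on 4× images, and relative viability is the nuclei count of treated wells over that of vehicle wells, given as the median of duplicate plates.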

MK-8033 + Foretinib = compound: Cn1cc(-c2cnc3ccc4ccc(CS(=O)(=O)NCc5ccccn5)cc4c(=O)c3c2)cn1 [MK-8033] + COc1cc2c(Oc3ccc(NC(=O)C4(C(=O)Nc5ccc(F)cc5)CC4)cc3F)ccnc2cc1OCCCN1CCOCC1 [Foretinib] (partner 0.25 µM)
In short: as §1

RU-SKI 43 + Foretinib = compound: CC[C@@H](C)CNCC(=O)N1CCC2=C([C@@H]1COC3=CC=CC(=C3)C)C=CS2 [RU-SKI 43] + COc1cc2c(Oc3ccc(NC(=O)C4(C(=O)Nc5ccc(F)cc5)CC4)cc3F)ccnc2cc1OCCCN1CCOCC1 [Foretinib] (partner 0.25 µM)
In short: as §1

RU-SKI 43 + Tozasertib = compound: CC[C@@H](C)CNCC(=O)N1CCC2=C([C@@H]1COC3=CC=CC(=C3)C)C=CS2 [RU-SKI 43] + Cc1cc(Nc2cc(N3CCN(C)CC3)nc(Sc3ccc(NC(=O)C4CC4)cc3)n2)n[nH]1 [Tozasertib] (partner 0.1 µM)
In short: as §1

Cell Line	relative viability (RU-SKI 43 + Trametinib; first compound 0.1 µM)	relative viability (RU-SKI 43 + Trametinib; first compound 0.3162 µM)	relative viability (RU-SKI 43 + Trametinib; first compound 1 µM)	relative viability (RU-SKI 43 + Trametinib; first compound 3.162 µM)	relative viability (RU-SKI 43 + Trametinib; first compound 10 µM)	relative viability (MK-8033 + Foretinib; first compound 0.02 µM)	relative viability (MK-8033 + Foretinib; first compound 0.06325 µM)	relative viability (MK-8033 + Foretinib; first compound 0.2 µM)	relative viability (MK-8033 + Foretinib; first compound 0.6325 µM)	relative viability (MK-8033 + Foretinib; first compound 2 µM)	relative viability (RU-SKI 43 + Foretinib; first compound 0.1 µM)	relative viability (RU-SKI 43 + Foretinib; first compound 0.3162 µM)	relative viability (RU-SKI 43 + Foretinib; first compound 1 µM)	relative viability (RU-SKI 43 + Foretinib; first compound 3.162 µM)	relative viability (RU-SKI 43 + Foretinib; first compound 10 µM)	relative viability (RU-SKI 43 + Tozasertib; first compound 0.1 µM)	relative viability (RU-SKI 43 + Tozasertib; first compound 0.3162 µM)	relative viability (RU-SKI 43 + Tozasertib; first compound 1 µM)	relative viability (RU-SKI 43 + Tozasertib; first compound 3.162 µM)	relative viability (RU-SKI 43 + Tozasertib; first compound 10 µM)
NCI-H2126	0.56	0.605	0.506	0.607	0.559	1.13	0.998	1.16	1.18	1.15	1.09	1.05	1.17	1.28	1.33	0.817	0.917	0.962	0.854	0.74
NCI-H1355	0.451	0.437	0.376	0.477	0.464	0.888	0.886	0.961	0.862	0.909	0.914	1.22	1.01	1.02	0.936	0.516	0.617	0.618	0.562	0.447
A-427	0.718	0.694	0.788	0.744	0.706	1.04	1.04	0.903	1.11	1	1.14	1.03	1.13	1.11	0.969	0.226	0.165	0.23	0.21	0.196
NCI-H3122	0.244	0.233	0.241	0.252	0.259	0.962	0.958	0.93	0.908	0.974	0.941	1.05	1	0.994	0.972	0.372	0.416	0.495	0.392	0.369
SW 900	0.818	0.76	1.03	1.02	0.594	0.732	0.813	0.665	0.88	0.79	0.807	0.873	1.22	0.864	0.77	0.671	0.553	0.54	0.45	0.512
NCI-H1437	0.492	0.555	0.59	0.527	0.363	1.21	1.3	1.19	1.23	1.19	1.22	1.24	1.37	1.2	1.22	0.362	0.34	0.443	0.379	0.38
COR-L23	0.611	0.598	0.672	0.577	0.423	0.934	0.997	0.986	1.04	0.993	0.914	1.19	1.24	1.04	0.842	0.18	0.179	0.188	0.164	0.176
